Laboratory results as given in ChEMBL document CHEMBL1909294, “Translating clinical findings into knowledge in drug safety evaluation--drug induced liver injury prediction system (DILIps)” (PLoS Comput Biol, 2011).
*1 amine or outer side, *2 acyl side, *3 side chain or, on linkers, in order; H or OH if unused. Where a SMILES comes first, the peptide text is derived from it. Bridges are numbered along the chain shown (N, C = ends). [ ]: non-standard residue; d: D form. The star is where a group is joined. ξ: configuration not given here. X2 = N=C1NCCC([C@H](N[*:1])C(=O)[*:2])N1; ΔAla(Z-3-ureido) = NC(=O)N/C=C(\N)C(=O)O; ξβ3hOrn = NCCCC(N)CC(=O)*; Dap = NC[C@H](N)C(=O)O

How the values were obtained:
Hepatotoxicity [1] = tested on: Hepatotoxicity;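 for HepSE bilirubinemia: bilirubinemia hepatic side effect score drawn from the DILIps training data, a prediction system for drug-induced liver injury; call rule not given here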;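 for HepSE cholecystitis: Cholecystitis-related hepatic side effect score drawn from the DILIps (drug-induced liver injury prediction) training data set; call rule not given here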;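 for HepSE cholelithiasis: hepatic side effect score for cholelithiasis, drawn from the DILIps training data for predicting drug-induced liver injury; call rule not given here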;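 for HepSE cirrhosis: cirrhosis hepatic side effect score taken from the DILIps (drug-induced liver injury prediction) training set; call rule not given here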;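 for HepSE elevated liver function tests: hepatic side effect score for raised liver function tests, as recorded in the DILIps training set used for predicting drug-induced liver injury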; for HepSE hepatic failure: call rule not given here;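 for HepSE hepatomegaly: hepatic side effect score for hepatomegaly, taken from the training set of the DILIps drug-induced liver injury prediction system; call rule not given here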
Hepatotoxicity [2] = tested on: Hepatotoxicity; remark: listed apart in the source;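 for HepSE bilirubinemia: bilirubinemia hepatic side effect score drawn from the DILIps training data, a prediction system for drug-induced liver injury; call rule not given here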;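 for HepSE cholecystitis: Cholecystitis-related hepatic side effect score drawn from the DILIps (drug-induced liver injury prediction) training data set; call rule not given here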;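 for HepSE cholelithiasis: hepatic side effect score for cholelithiasis, drawn from the DILIps training data for predicting drug-induced liver injury; call rule not given here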;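 for HepSE cirrhosis: cirrhosis hepatic side effect score taken from the DILIps (drug-induced liver injury prediction) training set; call rule not given here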;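 for HepSE elevated liver function tests: hepatic side effect score for raised liver function tests, as recorded in the DILIps training set used for predicting drug-induced liver injury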; for HepSE hepatic failure: call rule not given here
Hepatotoxicity [3] = tested on: Hepatotoxicity; remark: listed apart in the source;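 for HepSE bilirubinemia: bilirubinemia hepatic side effect score drawn from the DILIps training data, a prediction system for drug-induced liver injury; call rule not given here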;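 for HepSE cholecystitis: Cholecystitis-related hepatic side effect score drawn from the DILIps (drug-induced liver injury prediction) training data set; call rule not given here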;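 for HepSE cholelithiasis: hepatic side effect score for cholelithiasis, drawn from the DILIps training data for predicting drug-induced liver injury; call rule not given here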;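 for HepSE cirrhosis: cirrhosis hepatic side effect score taken from the DILIps (drug-induced liver injury prediction) training set; call rule not given here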;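 for HepSE elevated liver function tests: hepatic side effect score for raised liver function tests, as recorded in the DILIps training set used for predicting drug-induced liver injury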; for HepSE hepatic failure: call rule not given here
Hepatotoxicity [4] = tested on: Hepatotoxicity; remark: listed apart in the source;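 for HepSE bilirubinemia: bilirubinemia hepatic side effect score drawn from the DILIps training data, a prediction system for drug-induced liver injury; call rule not given here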;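 for HepSE cholecystitis: Cholecystitis-related hepatic side effect score drawn from the DILIps (drug-induced liver injury prediction) training data set; call rule not given here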;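 for HepSE cholelithiasis: hepatic side effect score for cholelithiasis, drawn from the DILIps training data for predicting drug-induced liver injury; call rule not given here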;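 for HepSE cirrhosis: cirrhosis hepatic side effect score taken from the DILIps (drug-induced liver injury prediction) training set; call rule not given here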;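 for HepSE elevated liver function tests: hepatic side effect score for raised liver function tests, as recorded in the DILIps training set used for predicting drug-induced liver injury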; for HepSE hepatic failure: call rule not given here
Hepatotoxicity [5] = tested on: Hepatotoxicity; remark: listed apart in the source; for HepSE hepatic failure: call rule not given here
Hepatotoxicity [6] = tested on: Hepatotoxicity; remark: listed apart in the source; for HepSE hepatic failure: call rule not given here
Hepatotoxicity [7] = tested on: Hepatotoxicity; remark: listed apart in the source
Hepatotoxicity [8] = tested on: Hepatotoxicity; remark: listed apart in the source
Hepatotoxicity [9] = tested on: Hepatotoxicity; remark: listed apart in the source
Hepatotoxicity [10] = tested on: Hepatotoxicity; remark: listed apart in the source
Hepatotoxicity [11] = tested on: Hepatotoxicity; remark: listed apart in the source
Hepatotoxicity [12] = tested on: Hepatotoxicity; remark: listed apart in the source
Hepatotoxicity [13] = tested on: Hepatotoxicity; remark: listed apart in the source
Hepatotoxicity [14] = tested on: Hepatotoxicity; remark: listed apart in the source

Structure (SMILES)	HepSE_bilirubinemia (Hepatotoxicity [1])	HepSE_cholecystitis (Hepatotoxicity [2])	HepSE_cholelithiasis (Hepatotoxicity [3])	HepSE_cirrhosis (Hepatotoxicity [4])	HepSE_elevated liver function tests (Hepatotoxicity [5])	HepSE_hepatic failure (Hepatotoxicity [6])	HepSE_hepatic necrosis (Hepatotoxicity [7])	HepSE_hepatitis (Hepatotoxicity [8])	HepSE_hepatomegaly (Hepatotoxicity [9])	HepSE_jaundice (Hepatotoxicity [10])	HepSE_liver disease (Hepatotoxicity [11])	HepSE_liver fatty (Hepatotoxicity [12])	HepSE_liver function tests abnormal (Hepatotoxicity [13])	HepSE_Combined Scores (Hepatotoxicity [14])	also measured
Cc1nc2n(c(=O)c1CCN1CCC(c3noc4cc(F)ccc34)CC1)CCCC2 [RISPERIDONE]	1	1	1	0	0	1	0	1	1	1	0	1	0	8	
C[C@H](Cn1cnc2c(N)ncnc21)OCP(=O)(O)O [TENOFOVIR ANHYDROUS]	0	0	0	0	0	0	0	1	0	0	0	1	0	2	
CCn1cc(C(=O)O)c(=O)c2cc(F)c(N3CCNCC3)cc21 [NORFLOXACIN]															HepSE_bilirubinemia (Hepatotoxicity [1]; Liver): 0; HepSE_cholecystitis (Hepatotoxicity [2]; Liver): 0; HepSE_cholelithiasis (Hepatotoxicity [3]; Liver): 0; HepSE_cirrhosis (Hepatotoxicity [4]; Liver): 0; HepSE_elevated liver function tests (Hepatotoxicity [5]; Liver): 1; HepSE_hepatic failure (Hepatotoxicity [6]; Liver): 1; HepSE_hepatic necrosis (Hepatotoxicity [7]; Liver): 1; HepSE_hepatitis (Hepatotoxicity [8]; Liver): 1; HepSE_hepatomegaly (Hepatotoxicity [9]; Liver): 0; HepSE_jaundice (Hepatotoxicity [10]; Liver): 1; HepSE_liver disease (Hepatotoxicity [11]; Liver): 0; HepSE_liver fatty (Hepatotoxicity [12]; Liver): 0; HepSE_liver function tests abnormal (Hepatotoxicity [13]; Liver): 0; HepSE_Combined Scores (Hepatotoxicity [14]; Liver): 5
NCCCC(N)(C(=O)O)C(F)F (stereo not drawn) [EFLORNITHINE]	0	0	0	0	0	0	0	0	0	0	0	0	0	0	
CC[C@@H]1/C=C(\C)C[C@H](C)C[C@H](OC)[C@H]2O[C@@](O)(C(=O)C(=O)N3CCCC[C@H]3C(=O)O[C@H](/C(C)=C/[C@@H]3CC[C@H](Cl)[C@H](OC)C3)[C@H](C)[C@@H](O)CC1=O)[C@H](C)C[C@@H]2OC [PIMECROLIMUS]	0	0	0	0	0	0	0	0	0	0	0	0	0	0	
COc1cc([C@@H]2c3cc4c(cc3[C@@H](O[C@@H]3O[C@@H]5CO[C@@H](c6cccs6)O[C@H]5[C@H](O)[C@H]3O)[C@H]3COC(=O)[C@H]23)OCO4)cc(OC)c1O [TENIPOSIDE]	0	0	0	0	0	0	0	0	0	0	0	0	0	0	
CN(C)CCCN1c2ccccc2CCc2ccc(Cl)cc21 [CLOMIPRAMINE]	0	0	0	0	0	0	0	1	0	0	0	0	0	1	
COc1ccccc1Oc1c(NS(=O)(=O)c2ccc(C(C)(C)C)cc2)nc(-c2ncccn2)nc1OCCO [BOSENTAN]	0	0	0	1	0	1	0	1	0	1	0	0	0	4	
Nc1ccn([C@@H]2O[C@H](CO)[C@@H](O)C2(F)F)c(=O)n1 [GEMCITABINE]	0	0	0	0	0	1	0	0	0	0	0	0	0	1	
C[C@@H]1NC(=O)[C@@H](N)CNC(=O)[C@H](C2CCNC(=N)N2)NC(=O)/C(=C/NC(N)=O)NC(=O)[C@H](CNC(=O)CC(N)CCCN)NC1=O.N=C1NCCC([C@@H]2NC(=O)/C(=C/NC(N)=O)NC(=O)[C@H](CNC(=O)CC(N)CCCN)NC(=O)[C@H](CO)NC(=O)[C@@H](N)CNC2=O)N1 (stereo partly drawn) [CAPREOMYCIN] (H-[Dap]S[Dap](ξβ3hOrn)[ΔAla(Z-3-ureido)][X2]; lactam 1-C)	0	0	0	0	0	0	0	0	0	0	1	0	0	1	
Cc1nc2n(c(=O)c1CCN1CCC(c3noc4cc(F)ccc34)CC1)CCCC2O (stereo not drawn) [PALIPERIDONE]	0	0	0	0	0	0	0	0	0	0	0	0	0	0	
Clc1ccc(C(Cn2ccnc2)OCc2csc3c(Cl)cccc23)c(Cl)c1 (stereo not drawn) [SERTACONAZOLE]	0	0	0	0	0	0	0	0	0	0	0	0	0	0	
